Results published in patent US12538924B2, “Pesticidally active heterocyclic derivatives with sulfur containing substituents” (SYNGENTA CROP PROTECTION AG, priority 2019, dated 2026).

Assays:
Assay type in all cases: in vivo
[1] = test system: Diabrotica Balteata (Corn Root Worm); assay: Diabrotica balteata (Corn Root Worm), sprayed maize sprouts; conditions: 96 h, application rate of 200 ppm, L2 larvae on sprayed maize sprouts, 4 days after infestation, read-out: effect in at least one of the two categories (mortality or growth inhibition)
Method: Example B2: Diabrotica Balteata (Corn Root Worm)
Maize sprouts placed onto an agar layer in 24-well microtiter plates were treated with aqueous test solutions prepared from 10'000 ppm DMSO stock solutions by spraying. After drying, the plates were infested with L2 larvae (6 to 10 per well). The samples were assessed for mortality and growth inhibition in comparison to untreated samples 4 days after infestation.

[2] = test system: Euschistus heros (Neotropical Brown Stink Bug); assay: Euschistus heros (Neotropical Brown Stink Bug), sprayed soybean leaves; conditions: 120 h, application rate of 200 ppm, N2 nymphs on sprayed soybean leaves, 5 days after infestation, read-out: effect in at least one of the two categories (mortality or growth inhibition)
Method: Example B3: Euschistus heros (Neotropical Brown Stink Bug)
Soybean leaves on agar in 24-well microtiter plates were sprayed with aqueous test solutions prepared from 10'000 ppm DMSO stock solutions. After drying the leaves were infested with N2 nymphs. The samples were assessed for mortality and growth inhibition in comparison to untreated samples 5 days after infestation.

[3] = test system: Plutella xylostella (Diamond Back Moth); assay: Plutella xylostella (Diamond Back Moth), treated artificial diet; conditions: 192 h, application rate of 200 ppm, eggs on treated artificial diet, 8 days after infestation, read-out: effect in at least one of the two categories (mortality or growth inhibition)
Method: Example B5: Plutella xylostella (Diamond Back Moth)
24-well microtiter plates with artificial diet were treated with aqueous test solutions prepared from 10'000 ppm DMSO stock solutions by pipetting. After drying, Plutella eggs were pipetted through a plastic stencil onto a gel blotting paper and the plate was closed with it. The samples were assessed for mortality and growth inhibition in comparison to untreated samples 8 days after infestation.

[4] = test system: Myzus persicae (Green Peach Aphid); assay: Myzus persicae (Green Peach Aphid): Feeding/Contact Activity; conditions: foliar, 144 h, application rate of 200 ppm, aphid population of mixed ages on sprayed sunflower leaf discs, 6 days after infestation
Method: Example B6: Myzus persicae (Green Peach Aphid): Feeding/Contact Activity
Sunflower leaf discs were placed onto agar in a 24-well microtiter plate and sprayed with aqueous test solutions prepared from 10'000 ppm DMSO stock solutions. After drying, the leaf discs were infested with an aphid population of mixed ages. The samples were assessed for mortality 6 days after infestation.

[5] = test system: Myzus persicae (Green Peach Aphid); assay: Myzus persicae (Green Peach Aphid): Systemic Activity; conditions: 144 h, test rate of 24 ppm, roots of infested pea seedlings placed into test solutions, 6 days
Method: Example B7: Myzus persicae (Green Peach Aphid): Systemic Activity
Roots of pea seedlings infested with an aphid population of mixed ages were placed directly into aqueous test solutions prepared from 10'000 DMSO stock solutions. The samples were assessed for mortality 6 days after placing seedlings into test solutions.

[6] = test system: Spodoptera littoralis (Egyptian Cotton Leaf Worm); assay: Spodoptera littoralis (Egyptian Cotton Leaf Worm), sprayed cotton leaf discs; conditions: foliar, 72 h, application rate of 200 ppm, L1 larvae on sprayed cotton leaf discs, 3 days after infestation, read-out: control (mortality, anti-feeding effect or growth inhibition)
Method: Example B8: Spodoptera littoralis (Egyptian Cotton Leaf Worm)
Cotton leaf discs were placed onto agar in 24-well microtiter plates and sprayed with aqueous test solutions prepared from 10'000 ppm DMSO stock solutions. After drying the leaf discs were infested with five L1 larvae. The samples were assessed for mortality, anti-feeding effect, and growth inhibition in comparison to untreated samples 3 days after infestation. Control of Spodoptera littoralis by a test sample is given when at least one of the categories mortality, anti-feedant effect, and growth inhibition is higher than the untreated sample.

[7] = test system: Nilaparvata lugens (Brown Plant Hopper); assay: Nilaparvata lugens (Brown Plant Hopper): Larvicide, Systemic into Water; conditions: 168 h, test rate of 12.5 ppm, rice plants in nutritive solution, N3 nymphs, 7 days after infestation
Method: Example B12: Nilaparvata lugens (Brown Plant Hopper): Larvicide, Systemic into Water
Rice plants cultivated in a nutritive solution were treated with the diluted test solutions into nourishing cultivation system. 1 day after application plants were infested with ˜20 N3 nymphs. 7 days after infestation samples were assessed for mortality and growth regulation.

[8] = test system: Bemisia tabaci (Cotton White Fly); assay: Bemisia tabaci (Cotton White Fly): Feeding/Contact Activity; conditions: foliar, 144 h, application rate of 200 ppm, adult white flies on sprayed cotton leaf discs, 6 days after incubation
Method: Example B1: Bemisia tabaci (Cotton White Fly): Feeding/Contact Activity
Cotton leaf discs were placed on agar in 24-well microtiter plates and sprayed with aqueous test solutions prepared from 10'000 ppm DMSO stock solutions. After drying the leaf discs were infested with adult white flies. The samples were checked for mortality 6 days after incubation.

[9] = test system: Nilaparvata lugens (Brown Plant Hopper); assay: Nilaparvata lugens (Brown Plant Hopper): Larvicide, Feeding/Contact; conditions: 168 h, application rate of 50 ppm, N3 nymphs on sprayed rice plants, 7 days after the treatment
Method: Example B10: Nilaparvata lugens (Brown Plant Hopper): Larvicide, Feeding/Contact
Rice plants were treated with the diluted test solutions in a spray chamber. After drying plants were infested with ˜20 N3 nymphs. 7 days after the treatment samples were assessed for mortality and growth regulation.

[10] = test system: Nilaparvata lugens (Brown Plant Hopper); assay: Nilaparvata lugens (Brown Plant Hopper): Igr, Feeding/Contact; conditions: 360 h, application rate of 50 ppm, sprayed rice plants, N3 nymphs, assessed for effect on F1 generation 15 days after the treatment
Method: Example B11: Nilaparvata lugens (Brown Plant Hopper): Igr, Feeding/Contact
Rice plants were treated with the diluted test solutions in a spray chamber. After drying plants were infested with ˜20 N3 nymphs. 7 days after treatment adults were removed and 15 days after the treatment samples were assessed for effect on F1 generation.

CCS(=O)(=O)c1cccnc1N1Cc2cnc(C(F)(F)F)cc2C1=O [Compound P1, 2-(3-ethylsulfonyl-2-pyridyl)-6-(trifluoromethyl)-3H-pyrrolo[3,4-c]pyridin-1-one]
≥ 80%: percent effect (mortality or growth inhibition) at 200 ppm [1] | percent effect (mortality or growth inhibition) at 200 ppm [2] | percent effect (mortality or growth inhibition) at 200 ppm [3] | mortality at 200 ppm [4] | mortality at 24 ppm [5] | percent control (mortality, anti-feedant effect or growth inhibition) at 200 ppm [6] | mortality at 12.5 ppm [7]

CCS(=O)(=O)c1cc(C(C)(C)C#N)cnc1N1Cc2cnc(C(F)(F)F)cc2C1=O [Compound P2, 2-[5-ethylsulfonyl-6-[1-oxo-6-(trifluoromethyl)-3H-pyrrolo[3,4-c]pyridin-2-yl]-3-pyridyl]-2-methyl-propanenitrile]
≥ 80%: mortality at 200 ppm [8] | percent effect (mortality or growth inhibition) at 200 ppm [1] | percent effect (mortality or growth inhibition) at 200 ppm [2] | percent effect (mortality or growth inhibition) at 200 ppm [3] | mortality at 200 ppm [4] | mortality at 24 ppm [5] | percent control (mortality, anti-feedant effect or growth inhibition) at 200 ppm [6] | mortality at 50 ppm [9] | mortality at 50 ppm [10] | mortality at 12.5 ppm [7]

CCS(=O)(=O)c1ccc(NC)nc1N1Cc2cnc(C(F)(F)F)cc2C1=O [Compound P4, 2-[3-ethylsulfonyl-6-(methylamino)-2-pyridyl]-6-(trifluoromethyl)-3H-pyrrolo[3,4-c]pyridin-1-one]
≥ 80%: percent effect (mortality or growth inhibition) at 200 ppm [1] | percent effect (mortality or growth inhibition) at 200 ppm [2] | percent effect (mortality or growth inhibition) at 200 ppm [3] | mortality at 200 ppm [4] | mortality at 24 ppm [5] | percent control (mortality, anti-feedant effect or growth inhibition) at 200 ppm [6] | mortality at 50 ppm [9] | mortality at 50 ppm [10] | mortality at 12.5 ppm [7]

CCS(=O)(=O)c1ccc(-n2cncn2)nc1N1Cc2cnc(C(F)(F)F)cc2C1=O [Compound P5, 2-[3-ethylsulfonyl-6-(1,2,4-triazol-1-yl)-2-pyridyl]-6-(trifluoromethyl)-3H-pyrrolo[3,4-c]pyridin-1-one]
≥ 80%: mortality at 200 ppm [8] | percent effect (mortality or growth inhibition) at 200 ppm [1] | percent effect (mortality or growth inhibition) at 200 ppm [2] | percent effect (mortality or growth inhibition) at 200 ppm [3] | mortality at 200 ppm [4] | mortality at 24 ppm [5] | percent control (mortality, anti-feedant effect or growth inhibition) at 200 ppm [6] | mortality at 50 ppm [9] | mortality at 50 ppm [10] | mortality at 12.5 ppm [7]

CCS(=O)(=O)c1ccc(N(C)C(=O)NC)nc1N1Cc2cnc(C(F)(F)F)cc2C1=O [Compound P6, 1-[5-ethylsulfonyl-6-[1-oxo-6-(trifluoromethyl)-3H-pyrrolo[3,4-c]pyridin-2-yl]-2-pyridyl]-1,3-dimethyl-urea]
≥ 80%: mortality at 200 ppm [8] | percent effect (mortality or growth inhibition) at 200 ppm [1] | percent effect (mortality or growth inhibition) at 200 ppm [2] | percent effect (mortality or growth inhibition) at 200 ppm [3] | mortality at 200 ppm [4] | mortality at 24 ppm [5] | mortality at 50 ppm [9] | mortality at 12.5 ppm [7]

CCS(=O)(=O)c1cc(-n2ccc(C(F)(F)F)n2)cnc1N1Cc2cnc(C(F)(F)F)cc2C1=O [Compound P9, 2-[3-ethylsulfonyl-5-[3-(trifluoromethyl)pyrazol-1-yl]-2-pyridyl]-6-(trifluoromethyl)-3H-pyrrolo[3,4-c]pyridin-1-one]
≥ 80%: mortality at 200 ppm [8] | percent effect (mortality or growth inhibition) at 200 ppm [1] | percent effect (mortality or growth inhibition) at 200 ppm [2] | percent effect (mortality or growth inhibition) at 200 ppm [3] | mortality at 200 ppm [4] | percent control (mortality, anti-feedant effect or growth inhibition) at 200 ppm [6] | mortality at 50 ppm [10] | mortality at 12.5 ppm [7]

CCS(=O)(=O)c1cc(C(F)(F)F)cnc1N1Cc2cnc(C(F)(F)F)cc2C1=O [Compound P10, 2-[3-ethylsulfonyl-5-(trifluoromethyl)-2-pyridyl]-6-(trifluoromethyl)-3H-pyrrolo[3,4-c]pyridin-1-one]
≥ 80%: mortality at 200 ppm [8] | percent effect (mortality or growth inhibition) at 200 ppm [1] | percent effect (mortality or growth inhibition) at 200 ppm [2] | percent effect (mortality or growth inhibition) at 200 ppm [3] | mortality at 200 ppm [4] | mortality at 24 ppm [5] | percent control (mortality, anti-feedant effect or growth inhibition) at 200 ppm [6] | mortality at 50 ppm [9] | mortality at 50 ppm [10] | mortality at 12.5 ppm [7]

CCS(=O)(=O)c1cc(C2(C#N)CC2)cnc1N1Cc2ncc(C(F)(F)F)cc2C1=O [Compound P11, 1-[5-ethylsulfonyl-6-[5-oxo-3-(trifluoromethyl)-7H-pyrrolo[3,4-b]pyridin-6-yl]-3-pyridyl]cyclopropanecarbonitrile]
≥ 80%: mortality at 200 ppm [8] | percent effect (mortality or growth inhibition) at 200 ppm [1] | percent effect (mortality or growth inhibition) at 200 ppm [2] | percent effect (mortality or growth inhibition) at 200 ppm [3] | mortality at 200 ppm [4] | mortality at 24 ppm [5] | percent control (mortality, anti-feedant effect or growth inhibition) at 200 ppm [6] | mortality at 50 ppm [9] | mortality at 50 ppm [10] | mortality at 12.5 ppm [7]

CCS(=O)(=O)c1cc(Oc2ccccn2)cnc1N1Cc2cnc(C(F)(F)F)cc2C1=O [Compound P12, 2-[3-ethylsulfonyl-5-(2-pyridyloxy)-2-pyridyl]-6-(trifluoromethyl)-3H-pyrrolo[3,4-c]pyridin-1-one]
≥ 80%: percent effect (mortality or growth inhibition) at 200 ppm [1] | percent effect (mortality or growth inhibition) at 200 ppm [2] | percent effect (mortality or growth inhibition) at 200 ppm [3] | mortality at 200 ppm [4] | mortality at 24 ppm [5] | percent control (mortality, anti-feedant effect or growth inhibition) at 200 ppm [6] | mortality at 12.5 ppm [7]

CCS(=O)(=O)c1cc(-n2ccc(Cl)n2)cnc1N1Cc2cnc(C(F)(F)F)cc2C1=O [Compound P13, 2-[5-(3-chloropyrazol-1-yl)-3-ethylsulfonyl-2-pyridyl]-6-(trifluoromethyl)-3H-pyrrolo[3,4-c]pyridin-1-one]
≥ 80%: mortality at 200 ppm [8] | percent effect (mortality or growth inhibition) at 200 ppm [1] | percent effect (mortality or growth inhibition) at 200 ppm [2] | percent effect (mortality or growth inhibition) at 200 ppm [3] | mortality at 200 ppm [4] | percent control (mortality, anti-feedant effect or growth inhibition) at 200 ppm [6] | mortality at 12.5 ppm [7]

CCS(=O)(=O)c1ccc(N(C)C(=O)C2CC2)nc1N1Cc2cnc(C(F)(F)F)cc2C1=O [Compound P18, N-[5-ethylsulfonyl-6-[1-oxo-6-(trifluoromethyl)-3H-pyrrolo[3,4-c]pyriclin-2-yl]-2-pyridyl]-N-methyl-cyclopropanecarboxamide]
≥ 80%: mortality at 200 ppm [8] | percent effect (mortality or growth inhibition) at 200 ppm [1] | percent effect (mortality or growth inhibition) at 200 ppm [2] | percent effect (mortality or growth inhibition) at 200 ppm [3] | mortality at 200 ppm [4] | mortality at 24 ppm [5] | percent control (mortality, anti-feedant effect or growth inhibition) at 200 ppm [6] | mortality at 50 ppm [9] | mortality at 50 ppm [10] | mortality at 12.5 ppm [7]
